Source: ChEMBL document CHEMBL1201862, “PubChem BioAssay data set” (2004)
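Following 48 hours of exposure in 96-well plates, responses at five concentrations were used to interpolate endpoints linearly. Abbreviation: GI50, concentration required for 50% inhibition of growth.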 The source made the active and inactive calls. Rule as the data show it: active = GI50 up to about 1.1 µM and inactive = higher.

Columns and labels:
Experiment in all cases: NCI-60 cell line screen, 48 h
[1] = system: OVCAR-4
[2] = system: K562
[3] = system: T47D
[4] = system: SNB-19
[5] = system: A549
[6] = system: SF-295
[7] = system: SN12C
[8] = system: SF-268
[9] = system: MDA-MB-435
[10] = system: UO-31
[11] = system: KM12
[12] = system: EKVX
[13] = system: Malme-3M
[14] = system: HCT-116
[15] = system: UACC-62
[16] = system: 786-0
[17] = system: NCI-H460
[18] = system: RPMI-8226
[19] = system: Hs-578T
[20] = system: SF-539

Row | SMILES | GI50 [1] | GI50 [2] | GI50 [3] | GI50 [4] | GI50 [5] | GI50 [6] | GI50 [7] | GI50 [8] | GI50 [9] | GI50 [10] | GI50 [11] | GI50 [12] | GI50 [13] | GI50 [14] | GI50 [15] | GI50 [16] | GI50 [17] | GI50 [18] | GI50 [19] | GI50 [20]
1 | CCCCN(c1ccccc1)c1ncnc2c1cnn2C | 27.1 µM (inactive) | 28.2 µM (inactive) | 20.2 µM (inactive) | 89.9 µM (inactive) | 51.2 µM (inactive) | 32.5 µM (inactive) | 65 µM (inactive) | 34.8 µM (inactive) | 37.5 µM (inactive) | 40.6 µM (inactive) | 46 µM (inactive) | 31.8 µM (inactive) | 25.2 µM (inactive) | 40.6 µM (inactive) | 31.2 µM (inactive) | 53.3 µM (inactive) | 31.6 µM (inactive) | 14.3 µM (inactive) | 22.4 µM (inactive) | –
2 | COC1=C2C[C@@H](C)C[C@@H](OC)[C@@H](O)[C@H](C)/C=C(\C)[C@@H](OC(N)=O)[C@H](OC)/C=C\C=C(/C)C(=O)NC(=CC1=O)C2=O | – | 0.0115 µM (active) | – | 10.2 µM (inactive) | 5.78 µM (inactive) | 9.38 µM (inactive) | 0.0405 µM (active) | 1.01 µM (active) | 0.0309 µM (active) | 0.189 µM (active) | 0.455 µM (active) | 6.56 µM (inactive) | 0.044 µM (active) | 0.0419 µM (active) | 0.122 µM (active) | 0.0762 µM (active) | 1.49 µM (inactive) | 0.138 µM (active) | – | 0.132 µM (active)
3 | O=c1cc(NNc2ccc3ccccc3c2)[nH]c(=S)[nH]1 | 68.7 µM (inactive) | 18.6 µM (inactive) | – | 94.8 µM (inactive) | > 100 µM (inactive) | 61.9 µM (inactive) | 34.8 µM (inactive) | 21.1 µM (inactive) | 23.4 µM (inactive) | > 100 µM (inactive) | 17.7 µM (inactive) | > 100 µM (inactive) | 63.7 µM (inactive) | 39.9 µM (inactive) | – | 6.75 µM (inactive) | 40.9 µM (inactive) | 22.2 µM (inactive) | 25 µM (inactive) | 30.3 µM (inactive)
4 | Cc1ccc(S(=O)(=O)ON2C(=O)c3cccc4cc([N+](=O)[O-])cc(c34)C2=O)cc1 | 93.1 µM (inactive) | – | 51.6 µM (inactive) | 57.8 µM (inactive) | > 100 µM (inactive) | > 100 µM (inactive) | 81.3 µM (inactive) | 79.3 µM (inactive) | 40.3 µM (inactive) | 42.1 µM (inactive) | 32.6 µM (inactive) | > 100 µM (inactive) | 44.2 µM (inactive) | 45.3 µM (inactive) | 49.9 µM (inactive) | 47.5 µM (inactive) | 19.6 µM (inactive) | > 100 µM (inactive) | 68.1 µM (inactive) | –
5 | O=C1/C(=c2\s/c(=C\c3ccccc3)c(=O)n2-c2ccccc2)SC(=S)N1c1ccccc1 | 29.4 µM (inactive) | 47.2 µM (inactive) | – | 46.1 µM (inactive) | 34.8 µM (inactive) | 30.3 µM (inactive) | 35.6 µM (inactive) | 41.8 µM (inactive) | 49.8 µM (inactive) | – | 71.8 µM (inactive) | 35.6 µM (inactive) | 28.7 µM (inactive) | 58.9 µM (inactive) | 35.6 µM (inactive) | 45.8 µM (inactive) | 41 µM (inactive) | 56.8 µM (inactive) | 34.4 µM (inactive) | 21.5 µM (inactive)
6 | COc1ccc(C2C3=C(Nc4ncnn42)c2ccccc2OC3c2ccccc2)cc1 (configuration not stated) | – | 11 µM (inactive) | 13.7 µM (inactive) | > 100 µM (inactive) | 14.9 µM (inactive) | 27.8 µM (inactive) | > 100 µM (inactive) | 42.6 µM (inactive) | 4.3 µM (inactive) | 50.1 µM (inactive) | 14.6 µM (inactive) | – | – | 18.9 µM (inactive) | 17.3 µM (inactive) | 47.1 µM (inactive) | 27.2 µM (inactive) | – | 19.1 µM (inactive) | 40 µM (inactive)
7 | O=C(/C=C/c1cc(F)ccc1F)OCCc1ccccc1 | 0.933 µM (active) | 52.1 µM (inactive) | – | > 100 µM (inactive) | > 100 µM (inactive) | – | – | > 100 µM (inactive) | > 100 µM (inactive) | 95.7 µM (inactive) | 96.2 µM (inactive) | > 100 µM (inactive) | > 100 µM (inactive) | > 100 µM (inactive) | 86.5 µM (inactive) | 89.3 µM (inactive) | – | 47.3 µM (inactive) | 1.67 µM (inactive) | 88.5 µM (inactive)
8 | Cc1ccccc1NC(=O)Cc1csc(N/N=C2\C(=O)Nc3ccccc32)n1 | 21.8 µM (inactive) | 64.7 µM (inactive) | – | 71.8 µM (inactive) | 48.9 µM (inactive) | 16.7 µM (inactive) | 61.2 µM (inactive) | 39.4 µM (inactive) | 1 µM (active) | 40.8 µM (inactive) | 33.3 µM (inactive) | 31.8 µM (inactive) | 32.4 µM (inactive) | 43.7 µM (inactive) | 49.9 µM (inactive) | 43 µM (inactive) | 35.4 µM (inactive) | 31 µM (inactive) | 25.8 µM (inactive) | 17.9 µM (inactive)
9 | O=C(CN1CCCCC1)c1ccc2[nH]c(=O)oc2c1 | – | > 100 µM (inactive) | – | > 100 µM (inactive) | – | > 100 µM (inactive) | > 100 µM (inactive) | > 100 µM (inactive) | > 100 µM (inactive) | – | > 100 µM (inactive) | > 100 µM (inactive) | > 100 µM (inactive) | > 100 µM (inactive) | > 100 µM (inactive) | > 100 µM (inactive) | > 100 µM (inactive) | > 100 µM (inactive) | > 100 µM (inactive) | > 100 µM (inactive)
10 | CCOC(=O)N1[C@@H]2CCC[C@@H]2C(=O)[C@@H]2CCC[C@@H]21 | > 100 µM (inactive) | > 100 µM (inactive) | > 100 µM (inactive) | > 100 µM (inactive) | > 100 µM (inactive) | – | > 100 µM (inactive) | > 100 µM (inactive) | > 100 µM (inactive) | – | > 100 µM (inactive) | – | – | > 100 µM (inactive) | > 100 µM (inactive) | > 100 µM (inactive) | > 100 µM (inactive) | > 100 µM (inactive) | > 100 µM (inactive) | –
11 | NC(Cc1ccc(O)cn1)C(=O)O (configuration not stated) | > 100 µM (inactive) | > 100 µM (inactive) | – | > 100 µM (inactive) | > 100 µM (inactive) | > 100 µM (inactive) | > 100 µM (inactive) | > 100 µM (inactive) | 84.1 µM (inactive) | > 100 µM (inactive) | > 100 µM (inactive) | > 100 µM (inactive) | > 100 µM (inactive) | > 100 µM (inactive) | – | > 100 µM (inactive) | > 100 µM (inactive) | > 100 µM (inactive) | 4.19 µM (inactive) | > 100 µM (inactive)
12 | C[C@H]1CC[C@@]2(NC1)O[C@H]1C[C@H]3[C@@H]4CC[C@H]5C[C@@H](O)CC[C@]5(C)[C@H]4CC[C@]3(C)[C@H]1[C@@H]2C | 35.6 µM (inactive) | > 100 µM (inactive) | > 100 µM (inactive) | > 100 µM (inactive) | > 100 µM (inactive) | 55.7 µM (inactive) | > 100 µM (inactive) | 74.8 µM (inactive) | – | > 100 µM (inactive) | 71.8 µM (inactive) | > 100 µM (inactive) | – | 54.8 µM (inactive) | > 100 µM (inactive) | 39.9 µM (inactive) | 33.4 µM (inactive) | > 100 µM (inactive) | 47 µM (inactive) | > 100 µM (inactive)
13 | COC(=O)C1=C(C(=O)OC)C(C(=O)c2ccccc2)N2N=C(c3ccc(Cl)cc3)C=CC12 (configuration not stated) | 19.2 µM (inactive) | 30.3 µM (inactive) | > 100 µM (inactive) | > 100 µM (inactive) | 31 µM (inactive) | 44.7 µM (inactive) | 85.5 µM (inactive) | 6.55 µM (inactive) | 9.44 µM (inactive) | > 100 µM (inactive) | 13.1 µM (inactive) | 8.81 µM (inactive) | 11.2 µM (inactive) | 3.48 µM (inactive) | 23.9 µM (inactive) | > 100 µM (inactive) | 37.1 µM (inactive) | 3.95 µM (inactive) | – | > 100 µM (inactive)
14 | Oc1cc(-c2ccc3ccccc3c2)nc2ncccc12 | 12.1 µM (inactive) | 2.7 µM (inactive) | 11.6 µM (inactive) | 17.8 µM (inactive) | 4.68 µM (inactive) | – | 23.6 µM (inactive) | 28.1 µM (inactive) | – | 18.1 µM (inactive) | 4.88 µM (inactive) | 33.2 µM (inactive) | 13.1 µM (inactive) | – | 5.41 µM (inactive) | 12.1 µM (inactive) | – | 3.15 µM (inactive) | 9.35 µM (inactive) | 6.95 µM (inactive)
15 | NC(=O)CN1C=CCC(C(N)=O)=C1 [CARICOTAMIDE] | > 100 µM (inactive) | > 100 µM (inactive) | > 100 µM (inactive) | > 100 µM (inactive) | > 100 µM (inactive) | > 100 µM (inactive) | > 100 µM (inactive) | > 100 µM (inactive) | > 100 µM (inactive) | > 100 µM (inactive) | > 100 µM (inactive) | > 100 µM (inactive) | > 100 µM (inactive) | > 100 µM (inactive) | > 100 µM (inactive) | > 100 µM (inactive) | > 100 µM (inactive) | > 100 µM (inactive) | – | > 100 µM (inactive)
